# Measurements taken from patent US11090308B2, “Methods of treating liver disorders or lipid disorders with a THR-beta agonist” (Madrigal Pharmaceuticals, Inc., priority 2016, dated 2021).
# Key:
# Format in all cases: in vitro ADME
# MDR1 (P-gp) = MDR1 (P-gp) (Homo sapiens, UniProt P08183); experiment: In vitro drug transporter assay, MDR1 (P-gp)
# Description: The following studies have been conducted: (a) in vitro drug protein binding, transporter (organic anion transporting polypeptide [OATP], P-glycoprotein [P-gp], breast cancer-related protein [BCRP], and multiple drug resistance protein 1 [MDR1]), and cytochrome P-450 enzyme assays to investigate absorption, distribution, and excretion; (b) in vivo MGL-3196 rat and dog oral PK and bioavailability studies; (c) in vivo ^14C-MGL-3196 rat and dog oral pharmacokinetics, absorption, excretion, and tissue distribution by quantitative whole-body autoradiography (QWBA) studies; and (d) liver disposition of MGL-3196 using an in vitro sandwiched hepatocyte model system (B-CLEAR® technology) in dog (SCDH) and human (SCHH) hepatocytes.
# MRP2 = MRP2 (Homo sapiens, UniProt Q92887); experiment: In vitro drug transporter assay, MRP2
# MRP2, sequence (Q92887 whole entry, species assumed): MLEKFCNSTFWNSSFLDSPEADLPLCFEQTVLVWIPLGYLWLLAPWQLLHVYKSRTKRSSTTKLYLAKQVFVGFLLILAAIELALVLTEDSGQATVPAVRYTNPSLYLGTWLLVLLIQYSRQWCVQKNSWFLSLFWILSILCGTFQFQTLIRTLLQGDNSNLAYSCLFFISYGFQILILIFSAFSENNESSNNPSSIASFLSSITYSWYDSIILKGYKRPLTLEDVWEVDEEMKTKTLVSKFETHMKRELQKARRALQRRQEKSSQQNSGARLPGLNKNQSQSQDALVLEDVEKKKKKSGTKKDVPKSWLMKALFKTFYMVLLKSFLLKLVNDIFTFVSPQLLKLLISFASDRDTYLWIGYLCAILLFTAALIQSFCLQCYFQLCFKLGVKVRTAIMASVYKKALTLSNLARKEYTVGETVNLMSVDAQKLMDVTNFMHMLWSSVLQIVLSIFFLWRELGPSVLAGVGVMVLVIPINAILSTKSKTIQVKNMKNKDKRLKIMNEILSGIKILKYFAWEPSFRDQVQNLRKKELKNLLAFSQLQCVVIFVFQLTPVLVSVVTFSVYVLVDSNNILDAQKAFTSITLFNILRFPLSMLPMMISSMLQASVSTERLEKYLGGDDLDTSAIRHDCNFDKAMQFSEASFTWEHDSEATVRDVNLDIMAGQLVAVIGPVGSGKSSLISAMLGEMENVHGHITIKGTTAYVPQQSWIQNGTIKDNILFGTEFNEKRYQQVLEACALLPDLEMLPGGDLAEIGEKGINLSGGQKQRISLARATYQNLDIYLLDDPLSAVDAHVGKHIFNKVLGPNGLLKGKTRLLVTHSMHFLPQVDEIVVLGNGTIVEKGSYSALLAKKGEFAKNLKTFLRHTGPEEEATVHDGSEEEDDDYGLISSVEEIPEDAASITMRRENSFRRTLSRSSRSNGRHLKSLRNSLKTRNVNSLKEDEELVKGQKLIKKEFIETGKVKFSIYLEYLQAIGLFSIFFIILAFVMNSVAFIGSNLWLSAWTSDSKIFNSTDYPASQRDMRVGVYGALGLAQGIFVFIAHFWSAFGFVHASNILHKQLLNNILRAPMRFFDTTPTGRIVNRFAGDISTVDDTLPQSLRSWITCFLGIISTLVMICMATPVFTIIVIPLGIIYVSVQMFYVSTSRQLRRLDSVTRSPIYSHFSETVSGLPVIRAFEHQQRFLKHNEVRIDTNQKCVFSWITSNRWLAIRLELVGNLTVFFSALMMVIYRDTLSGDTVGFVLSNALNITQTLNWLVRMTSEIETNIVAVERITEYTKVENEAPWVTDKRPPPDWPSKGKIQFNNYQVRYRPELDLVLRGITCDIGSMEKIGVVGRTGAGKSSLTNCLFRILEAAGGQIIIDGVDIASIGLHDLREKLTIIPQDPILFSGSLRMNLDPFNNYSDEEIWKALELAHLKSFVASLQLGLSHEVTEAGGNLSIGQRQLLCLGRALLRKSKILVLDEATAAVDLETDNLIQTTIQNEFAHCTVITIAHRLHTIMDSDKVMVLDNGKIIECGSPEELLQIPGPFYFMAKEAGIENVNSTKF
# OAT3 = biological target: T1, OAT3 (Homo sapiens, UniProt Q8TCC7); experiment: In vitro drug transporter assay, OAT3; conditions: read-out: Inhibitor of: OAT3, IC50
# T1 sequence (Q8TCC7 1-542): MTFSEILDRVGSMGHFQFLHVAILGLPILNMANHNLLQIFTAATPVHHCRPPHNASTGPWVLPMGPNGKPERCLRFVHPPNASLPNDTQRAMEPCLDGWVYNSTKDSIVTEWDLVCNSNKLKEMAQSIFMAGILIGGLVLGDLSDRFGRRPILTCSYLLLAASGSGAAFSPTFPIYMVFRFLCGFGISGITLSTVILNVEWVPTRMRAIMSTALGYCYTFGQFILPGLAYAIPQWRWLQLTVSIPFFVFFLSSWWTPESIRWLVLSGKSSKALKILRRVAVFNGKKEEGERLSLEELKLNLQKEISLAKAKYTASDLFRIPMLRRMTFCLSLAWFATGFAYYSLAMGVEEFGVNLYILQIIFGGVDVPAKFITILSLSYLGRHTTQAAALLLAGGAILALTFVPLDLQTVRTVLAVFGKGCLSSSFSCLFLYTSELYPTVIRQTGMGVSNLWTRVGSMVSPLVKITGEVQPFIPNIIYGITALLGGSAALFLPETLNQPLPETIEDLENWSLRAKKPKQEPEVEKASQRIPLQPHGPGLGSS
# MDR1 (P-gp), sequence (P08183 whole entry, species assumed): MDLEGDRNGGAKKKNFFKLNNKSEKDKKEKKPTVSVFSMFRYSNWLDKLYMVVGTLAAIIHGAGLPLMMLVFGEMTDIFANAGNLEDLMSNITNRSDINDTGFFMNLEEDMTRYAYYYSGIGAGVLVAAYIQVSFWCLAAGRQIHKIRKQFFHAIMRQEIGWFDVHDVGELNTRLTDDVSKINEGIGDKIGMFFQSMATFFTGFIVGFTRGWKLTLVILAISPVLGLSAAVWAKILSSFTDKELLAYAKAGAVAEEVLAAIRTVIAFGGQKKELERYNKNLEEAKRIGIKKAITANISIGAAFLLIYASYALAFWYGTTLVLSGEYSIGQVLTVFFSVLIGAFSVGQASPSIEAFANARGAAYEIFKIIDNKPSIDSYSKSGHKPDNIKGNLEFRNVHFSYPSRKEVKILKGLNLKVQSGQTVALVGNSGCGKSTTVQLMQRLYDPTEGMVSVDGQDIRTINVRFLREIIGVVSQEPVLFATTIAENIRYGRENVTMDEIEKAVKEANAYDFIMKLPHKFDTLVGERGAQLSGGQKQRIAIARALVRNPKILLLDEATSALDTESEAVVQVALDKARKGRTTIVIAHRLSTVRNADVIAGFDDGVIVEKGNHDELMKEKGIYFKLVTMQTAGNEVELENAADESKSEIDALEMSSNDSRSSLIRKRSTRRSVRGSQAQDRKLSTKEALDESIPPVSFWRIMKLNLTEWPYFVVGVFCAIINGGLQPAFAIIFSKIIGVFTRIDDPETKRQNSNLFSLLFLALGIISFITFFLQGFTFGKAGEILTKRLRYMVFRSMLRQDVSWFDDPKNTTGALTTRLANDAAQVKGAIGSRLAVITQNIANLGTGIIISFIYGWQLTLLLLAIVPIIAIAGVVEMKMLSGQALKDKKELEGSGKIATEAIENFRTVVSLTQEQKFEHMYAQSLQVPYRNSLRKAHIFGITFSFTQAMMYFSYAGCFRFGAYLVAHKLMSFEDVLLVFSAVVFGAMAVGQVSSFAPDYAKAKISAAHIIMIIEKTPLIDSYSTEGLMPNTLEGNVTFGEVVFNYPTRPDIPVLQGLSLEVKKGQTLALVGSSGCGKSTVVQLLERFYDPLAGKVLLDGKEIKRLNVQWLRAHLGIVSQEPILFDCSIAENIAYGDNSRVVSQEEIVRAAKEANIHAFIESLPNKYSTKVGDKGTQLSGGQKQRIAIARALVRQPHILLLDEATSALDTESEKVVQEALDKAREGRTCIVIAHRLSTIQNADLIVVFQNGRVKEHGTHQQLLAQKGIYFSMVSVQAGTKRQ
smiles,measurement,setting,value
"CC(C)c1cc(Oc2c(Cl)cc(-n3nc(C#N)c(=O)[nH]c3=O)cc2Cl)n[nH]c1=O [MGL-3196, 2-(3,5-dichloro-4-((5-isopropyl-6-oxo-1,6-dihydropyridazin-3-yl)oxy)phenyl)-3,5-dioxo-2,3,4,5-tetrahydro-1,2,4-triazine-6-carbonitrile]",Inhibitor of: MDR1,MDR1 (P-gp),not an inhibitor
same,Substrate for: MDR1 (P-gp),MDR1 (P-gp),weak substrate
same,Inhibitor of: MRP2,MRP2,not an inhibitor
same,Substrate for: MRP2,MRP2,not a substrate
same,IC50,OAT3,4.5 µM
